Measurements taken from PubChem BioAssay (NCI).
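Briefly, cells in 96-well plates were exposed to five compound concentrations for 48 h, and endpoints were estimated by linear interpolation. TGI marks complete inhibition of growth.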

Key:
Assay in all cases: NCI anticancer screen, dose series, 48 h
786-0 renal = tested on: 786-0 renal
A498 renal = tested on: A498 renal
A549 NSCLC = tested on: A549 NSCLC
DU-145 prostate = tested on: DU-145 prostate
HCC-2998 colon = tested on: HCC-2998 colon
HCT-116 colon = tested on: HCT-116 colon
HCT-15 colon = tested on: HCT-15 colon
HL-60(TB) leukemia = tested on: HL-60(TB) leukemia
MCF7 breast = tested on: MCF7 breast
MDA-MB-435 = tested on: MDA-MB-435
OVCAR-5 ovarian = tested on: OVCAR-5 ovarian
RPMI-8226 leukemia = tested on: RPMI-8226 leukemia
SK-MEL-28 melanoma = tested on: SK-MEL-28 melanoma
SK-MEL-5 melanoma = tested on: SK-MEL-5 melanoma
SNB-75 CNS = tested on: SNB-75 CNS
SW-620 colon = tested on: SW-620 colon
TK-10 renal = tested on: TK-10 renal
U251 CNS = tested on: U251 CNS
UO-31 renal = tested on: UO-31 renal

Structure (SMILES) | TGI (786-0 renal) | TGI (A498 renal) | TGI (A549 NSCLC) | TGI (DU-145 prostate) | TGI (HCC-2998 colon) | TGI (HCT-116 colon) | TGI (HCT-15 colon) | TGI (HL-60(TB) leukemia) | TGI (MCF7 breast) | TGI (MDA-MB-435) | TGI (OVCAR-5 ovarian) | TGI (RPMI-8226 leukemia) | TGI (SK-MEL-28 melanoma) | TGI (SK-MEL-5 melanoma) | TGI (SNB-75 CNS) | TGI (SW-620 colon) | TGI (TK-10 renal) | TGI (U251 CNS) | TGI (UO-31 renal)
CC(=O)c1c(SCCN2CCCC2)n(-c2ccccc2)c(=S)n(-c2ccccc2)c1=O | 3.12 µM | 27.7 µM | 15.1 µM | 8.85 µM | 11.9 µM | 18.6 µM | 27.5 µM | 6.93 µM | 3.01 µM | 13.2 µM | > 100 µM | 4.61 µM | 14.2 µM | 20.8 µM | 31.8 µM | 6.76 µM | 8.5 µM | 47.9 µM | 2.73 µM
COc1ccc(N(CN2C(=O)CCC2C(=O)O)C(C)=O)cc1 (stereo not given) | > 100 µM | > 100 µM | > 100 µM | > 100 µM | > 100 µM | > 100 µM | > 100 µM | > 100 µM | > 100 µM | > 100 µM | > 100 µM | > 100 µM | > 100 µM | > 100 µM | > 100 µM | > 100 µM | > 100 µM | > 100 µM | > 100 µM
Cn1c(-c2cccs2)cc(-c2ccccc2)c1-c1cccs1 | > 100 µM | > 100 µM | 45.7 µM | > 100 µM | > 100 µM | > 100 µM | > 100 µM | > 100 µM | > 100 µM | > 100 µM | > 100 µM | > 100 µM | > 100 µM | > 100 µM | > 100 µM | > 100 µM | > 100 µM | > 100 µM | > 100 µM
n1onc2c1NC1Nc3nonc3NC1N2 (stereo not given) | > 100 µM | > 100 µM | > 100 µM | > 100 µM | > 100 µM | > 100 µM | > 100 µM | > 100 µM | > 100 µM | > 100 µM | > 100 µM | > 100 µM | > 100 µM | > 100 µM | > 100 µM | > 100 µM | > 100 µM | > 100 µM | > 100 µM
CCOc1ccc(Nc2nc3c(s2)C(=O)c2ccccc2C3=O)cc1 | 31.2 µM | 29.7 µM | 44.3 µM | 27.8 µM | 33.5 µM | 33.2 µM | > 100 µM | > 100 µM | 38.4 µM | 3.25 µM | 40 µM | > 100 µM | 36.1 µM | 4.07 µM | 24 µM | 15.2 µM | 36.3 µM | 20.7 µM | 28.4 µM
